PMC7230232, “Secondary Metabolites from the Culture of the Marine-derived Fungus Paradendryphiella salina PC 362H and Evaluation of the Anticancer Activity of Its Metabolite Hyalodendrin” (Marine Drugs, 2020)
Values joined by “and” are separate entries in the source; they are usually repeats but may differ in a detail not shown here. Equal entries are not always repeated. Where two headings read alike, the source gives them in different places.

Columns and labels:
HCT116 5FU = assay: MTT cell viability assay, HCT116 5FU; assay type: cell-based; details: Homo sapiens, HCT-116; colon; 5-fluorouracil resistant
Description: (§1) Cellular viability was determined by the MTT (methylthiazolyldiphenyl-tetrazolium bromide) assay. Briefly, cells were exposed to the indicated concentrations of crude extracts or compounds 1–4 for five doubling times and then incubated for 3 h at 37 °C with MTT. Formazan crystals were then dissolved in DMSO and optical density measured at 570 nm in a microplate reader. The half-maximal inhibitory concentration (IC50) was determined. Values given for crude extracts are averages of at least two experiments done in duplicate. IC50 values calculated for the four isolated compounds and the commercially available 4-hydroxy-tamoxifen (Sigma-Aldrich) are averages of at least three experiments done in duplicate.

C19 = assay: MTT cell viability assay, C19 immortalized fibroblasts; assay type: cell-based; details: Homo sapiens, Fibroblast; normal; fibroblastic
Description: as §1

MCF7-Sh-WISP2 cells [1] = assay: Human cell stress array and immunoblotting; assay type: cell-based
Description: MCF7-Sh-WISP2 cells were treated for 48 h with 5.7 µM of 3 (corresponding to 3.8 × 10^−5 nmol of drug per cell), harvested and lysed for 30 min on ice with 0.4 mL of cell lysis buffer containing a cocktail of protease inhibitors. The lysates were centrifuged at 14,000 g for 5 min at 4 °C. Human cell stress proteins were detected using the Proteome Profiler human cell stress array kit (# ARY018, R&D systems) according to the manufacturer’s instructions. The chemiluminescent images of the slide were captured with the Chemidoc system (Biorad).
(§2) MCF7-Sh-WISP2 cells were incubated for 72 h at 37 °C with 2.4 µM of 3 (corresponding to 3.8 × 10^−5 nmol of drug per cell). Cells were then washed twice with Phosphate-Buffer Saline (PBS) 1X and lysed for 30 min in RIPA buffer (150 mM NaCl, 1.0% IGEPAL® CA-630, 0.5% sodium deoxycholate, 0.1% SDS, 50 mM Tris, pH 8.0). Proteins (20 µg) were resolved on sodium dodecyl sulfate polyacrylamide gel (SDS/PAGE) (12%) and blotted onto nitrocellulose membranes (Bio-Rad). […] Antigens were detected using an enhanced chemiluminescence kit (Biorad) using the Chemidoc system (Biorad). Protein quantitation was calculated using Image Lab software developed by Bio-Rad.

HeLa = assay: MTT cell viability assay, HeLa; assay type: cell-based; details: Homo sapiens, cervix
Description: as §1

MCF7-Sh-WISP2 cells [2] = assay: γ-H2AX foci immunofluorescence; assay type: cell-based, human; details: 1 µM
LS513 = assay: MTT cell viability assay, LS513; assay type: cell-based; details: Homo sapiens, LS-513; colon
Description: as §1

[3] = molecular target: cytoplasmic GAPDH from Arabidopsis thaliana (AtGAPDH) (Arabidopsis thaliana, UniProt P25858); assay: Covalent adduct formation with GAPDH by MALDI-TOF mass spectrometry; assay type: binding; details: data not shown
Sequence of cytoplasmic GAPDH from Arabidopsis thaliana (AtGAPDH) (P25858 whole entry): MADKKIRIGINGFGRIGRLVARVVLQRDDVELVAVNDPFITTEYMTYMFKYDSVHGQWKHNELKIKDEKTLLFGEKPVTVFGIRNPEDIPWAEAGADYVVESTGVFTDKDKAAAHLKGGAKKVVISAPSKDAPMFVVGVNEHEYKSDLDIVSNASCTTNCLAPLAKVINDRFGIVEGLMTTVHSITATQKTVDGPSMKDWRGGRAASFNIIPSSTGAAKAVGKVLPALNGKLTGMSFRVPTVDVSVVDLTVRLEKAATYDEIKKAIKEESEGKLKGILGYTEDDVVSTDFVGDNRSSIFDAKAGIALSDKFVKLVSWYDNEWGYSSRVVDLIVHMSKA
From the text: Compound 3 is a member of the epidithiodioxopiperazines, a class of natural products characterized by a sulfur-bridged dioxopiperazine that is believed to play an important role in their biological activity. […] The role of the sulfur-bridged dioxopiperazine in the activity of epidithiodioxopiperazines has been attributed to two main mechanisms: (1) mixed disulfide formation with proteins and (2) production of reactive oxygen species (ROS) upon the formation of the disulfide bond after reduction by a cellular reductant. […] To test whether 3 might act through these two processes, we first assessed its propensity to form in vitro covalent adducts with the glycolytic glyceraldehyde-3-phosphate dehydrogenase enzyme (GAPDH). GAPDH is a widely used model protein to study molecular mechanism of thiol-based post-translational modifications as its catalytic cysteine is prone to multiple reversible and irreversible oxidation states. […] Trxs are small ubiquitous thiol/disulfide oxidoreductases with multiple recognized roles in cellular processes and human diseases including cancers. However, since mammal NTR is a selenoprotein that is not easily produced recombinantly, we used here the thioredoxin system from the eukaryotic yeast Saccharomyces cerevisiae (Figure 6). […]

RKO = assay: MTT cell viability assay, RKO; assay type: cell-based; details: Homo sapiens, colon
Description: as §1

SW48 = assay: MTT cell viability assay, SW48; assay type: cell-based; details: Homo sapiens, colon
Description: as §1

MCF7-Sh-WISP2 cells [4] = assay: Intracellular signaling array and immunoblotting; assay type: cell-based, human
Description: MCF7-Sh-WISP2 cells were treated for 48 h with 2.8 µM of 3 (corresponding to 3.8 × 10^−5 nmol of drug per cell), harvested and lysed on ice for 5 min with 0.5 mL of cell lysis buffer containing a cocktail of protease inhibitors. The lysates were centrifuged at 14,000 g for 1 min at 4 °C. Intracellular signaling molecules were detected using a PathScan® intracellular signaling array kit (# 7323, Cell Signaling Technology) according to the manufacturer’s procedure. The chemiluminescent images of the slide were captured with the Chemidoc system (Biorad).
as §2

MCF7-Sh-WISP2 cells [5] = assay: MTT cell viability assay, MCF7-Sh-WISP2; assay type: cell-based, human; details: for IC50: Homo sapiens
Description: as §1

HT29 oxa = assay: MTT cell viability assay, HT29 oxa; assay type: cell-based; details: Homo sapiens, HT-29; colon; oxaliplatin resistant
Description: as §1

HCT116 oxa = assay: MTT cell viability assay, HCT116 oxa; assay type: cell-based; details: Homo sapiens, HCT-116; colon; oxaliplatin resistant
Description: as §1

MCF7 cells = assay: MTT cell viability assay, MCF7; assay type: cell-based, human; details: Homo sapiens
Description: as §1

HT29 5FU = assay: MTT cell viability assay, HT29 5FU; assay type: cell-based; details: Homo sapiens, HT-29; colon; 5-fluorouracil resistant
Description: as §1

HCT116 = assay: MTT cell viability assay, HCT116; assay type: cell-based; details: Homo sapiens, HCT-116; colon
Description: as §1

With `CN1C(=O)[C@@]2(Cc3ccccc3)SS[C@]1(CO)C(=O)N2C` [Compound 3, (3R, 6R) Hyalodendrin] the IC50 (HCT116 5FU) was 72 ± 10.9 nM, the IC50 (C19) was 252 ± 20.5 nM and the “phosphorylation of p53 on serine 46” value (MCF7-Sh-WISP2 cells [1]; 5.7 µM for 48 h (array), 2.4 µM for 72 h (Western blot)) was “decreased phosphorylation”. For the same compound, the BAX expression (MCF7-Sh-WISP2 cells [1]; Western blot, 2.4 µM for 72 h) was “decreased expression”, the “expression levels of HSP60 and HSP70 proteins” value (MCF7-Sh-WISP2 cells [1]; array, 5.7 µM for 48 h) was “marked decrease” and the “p21 protein expression levels” value (MCF7-Sh-WISP2 cells [1]; array, 5.7 µM for 48 h) was “no increase”. The IC50 (HeLa) was 69 ± 9.9 nM, the γ-H2AX signal (MCF7-Sh-WISP2 cells [2]; 24 and 48 h) was “punctuated labeling in their nucleus” and the γ-H2AX signal (MCF7-Sh-WISP2 cells [2]; 3 h) was “no γ-H2AX signal could be detected”. For the same compound, the IC50 (LS513) was 78 ± 9.3 nM, the “mixed disulfide formation with catalytic cysteine of AtGAPDH (mass shift)” value [3] was “not able to form a mixed disulfide” and the IC50 (RKO) was 74.3 ± 1.9 nM. The IC50 (SW48) was 149 ± 15.5 nM, the “phosphorylation of p53 on serine 15” value (MCF7-Sh-WISP2 cells [4]; 2.8 µM for 48 h (array), 2.4 µM for 72 h (Western blot)) was “increased phosphorylation” and the “PRAS40 protein expression levels” value (MCF7-Sh-WISP2 cells [4]; Western blot, 2.4 µM for 72 h) was “general decrease”. The “cleavage of PARP or caspase-3” value (MCF7-Sh-WISP2 cells [4]; signaling array) was “no cleavage”, the IC50 (MCF7-Sh-WISP2 cells [5]; read-out: IC50 MC7-Sh-WISP2) was 142 ± 3 nM and the IC50 (MCF7-Sh-WISP2 cells [5]; read-out: IC50 MCF7-Sh-WISP2) was 0.046 µg/mL and 140 nM. For the same compound, the “IC50 for MCF7-Sh-WISP2 expressed as amount of 3 per cell” value (MCF7-Sh-WISP2 cells [5]; corresponds to IC50 of 140 nM in the viability assay) was 3.8 × 10^−5 nmol of 3 per cell, the IC50 (HT29 oxa) was 142 ± 2.6 nM and the IC50 (HCT116 oxa) was 25.7 ± 4.2 nM. For the same compound, the IC50 (MCF7 cells; MCF7, read-out: IC50 MCF7, breast, epithelial) was 216 ± 6 nM, the IC50 (MCF7 cells; MCF7, read-out: IC50 MCF7, pure compounds, MTT) was 0.07 µg/mL and 220 nM and the IC50 (HT29 5FU) was 147 ± 10.2 nM. It also gave an IC50 (HCT116) of 48 ± 9.3 nM.
